Test results: patent US12622948B2 (SUN PHARMACEUTICAL INDUSTRIES LIMITED, priority 2020, dated 2026)
Marks after values point to notes of the source that are not given here.

Key:
[1] = test system: type 2 diabetic mouse (db/db) model; experiment: Efficacy study in db/db mice at 3 and 20 nM/kg dose (blood glucose, body weight, food intake); type: in vivo
Procedure: The effect of compounds of present invention on blood glucose, food intake and body weight was studied on mice. This study was performed in type 2 diabetic mouse (db/db) model. […] Baseline blood glucose was measured from all the animals. All animals were administered with test items subcutaneously. […] Delta blood glucose (mM) was calculated. Body weight changes and cumulative food consumption was measured at 72 hr post treatment.

[2] = test system: type 2 diabetic mouse (db/db) model; experiment: Efficacy study in db/db mice at 10 nM/kg dose (blood glucose, body weight, food intake); type: in vivo
Procedure: The effect of compounds of present invention on blood glucose, food intake and body weight was studied in mice. This study was performed in a type 2 diabetic mouse (db/db) model. […] Baseline blood glucose was measured from all the animals. […] All the animals were administered with test items subcutaneously. […] Delta blood glucose (mM) was calculated.

[3] = Study 1, db/db mice, 10 nM/kg s.c.
[4] = Study 1, db/db mice, 10 nM/kg s.c., 48 hr
[5] = Study 1, db/db mice, 10 nM/kg s.c., 96 hr
[6] = Study 2, db/db mice, 10 nM/kg s.c. single dose
[7] = Study 2, db/db mice, 10 nM/kg s.c. single dose, 48 hr
[8] = Study 2, db/db mice, 10 nM/kg s.c. single dose, 96 hr
[9] = db/db mice, 10 nM/kg s.c., vs diabetic control

In the case of CCC[C@H](NC(=O)[C@@H](NC(=O)[C@H](CO)NC(=O)[C@H](Cc1ccc(O)cc1)NC(=O)[C@H](CC(=O)O)NC(=O)[C@H](CO)NC(=O)[C@@H](NC(=O)[C@H](Cc1ccccc1)NC(=O)[C@@H](NC(=O)CNC(=O)[C@H](CCC(=O)O)NC(=O)C(C)(C)NC(=O)[C@@H](N)Cc1ccc(O)cc1)[C@@H](C)O)[C@@H](C)O)[C@@H](C)CC)C(=O)N[C@@H](CC(C)C)C(=O)N[C@@H](CC(=O)O)C(=O)N[C@@H](CCCCN)C(=O)N[C@H](C(=O)N[C@@H](C)C(=O)N[C@@H](CCC(N)=O)C(=O)N[C@@H](CCCCNC(=O)COCCOCCNC(=O)C(C)(C)NC(=O)CC[C@H](NC(=O)CCCCCCCCCCCCCCCCCCC(=O)O)C(=O)O)C(=O)N[C@@H](C)C(=O)N[C@@H](Cc1ccccc1)C(=O)N[C@H](C(=O)N[C@@H](CCC(N)=O)C(=O)N[C@@H](Cc1c[nH]c2ccccc12)C(=O)N[C@@H](CC(C)C)C(=O)N[C@H](C(=O)N[C@@H](C)C(=O)NCC(=O)NCC(=O)N1CCC[C@H]1C(=O)N[C@@H](CO)C(=O)N[C@@H](CO)C(=O)NCC(=O)N[C@@H](C)C(=O)N1CCC[C@H]1C(=O)N1CCC[C@H]1C(=O)N1CCC[C@H]1C(=O)N[C@@H](CO)C(N)=O)[C@@H](C)CC)C(C)C)[C@@H](C)CC [Compound 1], the “glucose lowering effect” value ([1]; 3 nM/kg and 20 nM/kg s.c.) is reported as “dose dependent improvement in glucose lowering effect upto 72 hours”, the “glucose lowering effect compared with tirzepatide” value ([1]; 3 nM/kg and 20 nM/kg s.c.) is reported as “superior to tirzepatide at similar dosage” and the “Cumulative Food Intake (g), 0-72 hr, Mean” value ([1]; 3 nM/kg s.c.) is reported as 10.2*** g. The “Delta Blood Glucose (mM) Mean” value ([1]; 3 nM/kg s.c., 0 hr (baseline)) was 0.0 mM, the “Delta Blood Glucose (mM) Mean” value ([1]; 3 nM/kg s.c., 4 hr) was −8.9*** mM and the “Delta Blood Glucose (mM) Mean” value ([1]; 3 nM/kg s.c., 24 hr) was −9.9*** mM. For the same molecule, the “Delta Blood Glucose (mM) Mean” value ([1]; 3 nM/kg s.c., 48 hr) was −5.8** mM, the “Body weight change (%) 72 hr vs. Baseline, Mean” value ([1]; 3 nM/kg s.c., 72 hr) was −4.0*** % and the “Delta Blood Glucose (mM) Mean” value ([1]; 3 nM/kg s.c., 72 hr) was -3.2 mM. The “Cumulative Food Intake (g), 0-72 hr, Mean” value ([1]; 20 nM/kg s.c.) was 6.3*** g, the “Delta Blood Glucose (mM) Mean” value ([1]; 20 nM/kg s.c., 0 hr (baseline)) was 0.0 mM and the “Delta Blood Glucose (mM) Mean” value ([1]; 20 nM/kg s.c., 4 hr) was −13.7*** mM. The “Delta Blood Glucose (mM) Mean” value ([1]; 20 nM/kg s.c., 24 hr) was −13.6*** mM, the “Delta Blood Glucose (mM) Mean” value ([1]; 20 nM/kg s.c., 48 hr) was −14.0*** mM and the “Body weight change (%) 72 hr vs. Baseline, Mean” value ([1]; 20 nM/kg s.c., 72 hr) was −6.2*** %. The “Delta Blood Glucose (mM) Mean” value ([1]; 20 nM/kg s.c., 72 hr) was −7.9*** mM, the “effect on body weight” value ([1]; 3 and 20 nM/kg) was “significant, dose dependent and comparable to tirzepatide” and the “effect on food intake” value ([1]; 3 and 20 nM/kg) was “significant, dose dependent and comparable to tirzepatide”. The “Cumulative food Intake (g) 0-48 hr. vs. Baseline, Mean” value [2, 3] was 7.5*** g, the “Cumulative food Intake (g) 0-96 hr. vs. Baseline, Mean” value [2, 3] was 13.9*** g and the “Delta Blood Glucose (mM) Mean” value ([2]; Study 1, db/db mice, 10 nM/kg s.c., 0 hr (baseline)) was 0 mM. For the same molecule, the “Delta Blood Glucose (mM) Mean” value ([2]; Study 1, db/db mice, 10 nM/kg s.c., 4 hr) was −12.7*** mM, the “Delta Blood Glucose (mM) Mean” value ([2]; Study 1, db/db mice, 10 nM/kg s.c., 8 hr) was −12.0*** mM and the “Delta Blood Glucose (mM) Mean” value ([2]; Study 1, db/db mice, 10 nM/kg s.c., 12 hr) was −10.5*** mM. The “Delta Blood Glucose (mM) Mean” value ([2]; Study 1, db/db mice, 10 nM/kg s.c., 24 hr) was −15.5*** mM, the “Body Wt. Change (%) 48 hr. vs. Baseline, Mean” value [2, 4] was −5.1*** % and the “Delta Blood Glucose (mM) Mean” value [2, 4] was −6.7*** mM. The “Delta Blood Glucose (mM) Mean” value ([2]; Study 1, db/db mice, 10 nM/kg s.c., 72 hr) was −4.3*** mM, the “Body Wt. Change (%) 96 hr. vs. Baseline, Mean” value [2, 5] was −4.2*** % and the “Delta Blood Glucose (mM) Mean” value [2, 5] was −2.2*** mM. For the same molecule, the “Cumulative food Intake (g) 0-48 hr. vs. Baseline, Mean” value [2, 6] was 3.8*** g, the “Cumulative food Intake (g) 0-96 hr. vs. Baseline, Mean” value [2, 6] was 12.5*** g and the “Delta Blood Glucose (mM) Mean” value ([2]; Study 2, db/db mice, 10 nM/kg s.c. single dose, 0 hr (baseline)) was 0 mM. For the same molecule, the “Delta Blood Glucose (mM) Mean” value ([2]; Study 2, db/db mice, 10 nM/kg s.c. single dose, 4 hr) was −10.0*** mM, the “Delta Blood Glucose (mM) Mean” value ([2]; Study 2, db/db mice, 10 nM/kg s.c. single dose, 8 hr) was −13.5*** mM and the “Delta Blood Glucose (mM) Mean” value ([2]; Study 2, db/db mice, 10 nM/kg s.c. single dose, 12 hr) was −12.3*** mM. For the same molecule, the “Delta Blood Glucose (mM) Mean” value ([2]; Study 2, db/db mice, 10 nM/kg s.c. single dose, 24 hr) was −11.5*** mM, the “Body Wt. Change (%) 48 hr. vs. Baseline, Mean” value [2, 7] was −5.1*** % and the “Delta Blood Glucose (mM) Mean” value [2, 7] was −7.9*** mM. The “Delta Blood Glucose (mM) Mean” value ([2]; Study 2, db/db mice, 10 nM/kg s.c. single dose, 72 hr) was −4.3** mM, the “Body Wt. Change (%) 96 hr. vs. Baseline, Mean” value [2, 8] was −3.5*** % and the “Delta Blood Glucose (mM) Mean” value [2, 8] was -1.4 mM. The “effect on blood glucose reduction compared with tirzepatide” value ([2]; db/db mice, 10 nM/kg s.c., same concentration as tirzepatide) was “superior to tirzepatide”, the “blood glucose reduction” value [2, 9] was “statistically significant blood glucose reduction upto 96 hr post treatment” and the “body weight reduction” value [2, 9] was “statistically significant body weight reduction which was comparable to tirzepatide”. The “reduction in food consumption” value [2, 9] was “significant reduction in food consumption which was comparable to tirzepatide”.
